In the supplement of paper PMC8671470:

What was measured:
Experiment in all cases: cell viability (% survival relative to DMSO control, bortezomib = 0%); higher = less cytotoxic
Settings in all cases: 72 h
[1] = test system: SHI-1
Procedure, shortened: (§1)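 Fifteen myeloid leukaemia cell lines (10 AML, 5 CML) were seeded at a density titrated to the linear growth range. They went into 384-well plates with compounds pre-printed at 1, 10, 100, 1000 or 10000 nM in duplicate. After 72 h at 37 °C with 5% CO2, viability was read by CellTiter-Glo luminescence. Values are percent survival, with vehicle set to 100% and a 10 µM positive control to 0%, averaged over the duplicates.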

[2] = test system: LAMA-84
Procedure, shortened: as §1

[3] = test system: MOLM-13
Procedure, shortened: as §1

[4] = test system: Mono-Mac-6
Procedure, shortened: as §1

| SMILES | cell viability ([1]; 1 nM) | cell viability ([1]; 10 nM) | cell viability ([1]; 100 nM) | cell viability ([1]; 1000 nM) | cell viability ([1]; 10000 nM) | cell viability ([2]; 1 nM) | cell viability ([2]; 10 nM) | cell viability ([2]; 100 nM) | cell viability ([2]; 1000 nM) | cell viability ([2]; 10000 nM) | cell viability ([3]; 1 nM) | cell viability ([3]; 10 nM) | cell viability ([3]; 100 nM) | cell viability ([3]; 1000 nM) | cell viability ([3]; 10000 nM) | cell viability ([4]; 1 nM) | cell viability ([4]; 10 nM) | cell viability ([4]; 100 nM) | cell viability ([4]; 1000 nM) | cell viability ([4]; 10000 nM) |
| --- | --- | --- | --- | --- | --- | --- | --- | --- | --- | --- | --- | --- | --- | --- | --- | --- | --- | --- | --- | --- |
| O=C(O)c1nn(Cc2ccc(Cl)cc2Cl)c2ccccc12 [Lonidamine] | 107% | 114% | 105% | 95.5% | 99.4% | 99.1% | 94.6% | 108% | 99.9% | 102% | 102% | 113% | 116% | 91.3% | 98.4% | 106% | 111% | 102% | 87.5% | 72.5% |
| C1CCc2nnc(C34CC5CC(CC(C5)C3)C4)n2CC1 [MERCK-544] | 90.2% | 110% | 104% | 90.2% | 118% | 102% | 94.5% | 91.9% | 92.9% | 101% | 97.3% | 126% | 115% | 80.7% | 118% | 95.9% | 100% | 93.3% | 97.7% | 96% |
| CC(Cc1ccc(O)c(O)c1)C(C)Cc1ccc(O)c(O)c1 (stereo not given) [Masoprocol] | 97.1% | 96.2% | 118% | 93.3% | 70.1% | 95.8% | 95.7% | 106% | 95.5% | 94% | 98.4% | 106% | 110% | 91.2% | 65.8% | 86.6% | 109% | 102% | 84.2% | 22.8% |
| CC(C(=O)O)C(=O)O [Methylmalonate] | 98.9% | 83.3% | 105% | 88.7% | 97% | 89.2% | 101% | 106% | 98.2% | 90.3% | 107% | 86.8% | 124% | 78.3% | 89.2% | 96.2% | 93% | 106% | 96.1% | 90.3% |
| COc1c(C)c2c(c(O)c1C/C=C(\C)CCC(=O)O)C(=O)OC2 [Mycophenolic acid] | 105% | 104% | 92% | 77.2% | 14.4% | 106% | 93.2% | 108% | 46.8% | 16.9% | 109% | 109% | 70.9% | 13% | 2.42% | 104% | 99.7% | 108% | 80% | 16.4% |
| C1CCC(C(CC2CCCCN2)C2CCCCC2)CC1.O=C(O)/C=C\C(=O)O (stereo not given) [Perhexiline] | 95% | 92% | 103% | 102% | 0.332% | 97.7% | 89.1% | 98% | 97.7% | 12.3% | 83.3% | 99.8% | 112% | 88.2% | 3.56% | 91.8% | 87.4% | 85.9% | 98.6% | 1.23% |
